Results from ChEMBL document CHEMBL4038335, “Neuroactive Steroids. 2. 3α-Hydroxy-3β-methyl-21-(4-cyano-1H-pyrazol-1'-yl)-19-nor-5β-pregnan-20-one (SAGE-217): A Clinical Next Generation Neuroactive Steroid Positive Allosteric Modulator of the (γ-Aminobutyric Acid)A Receptor” (J Med Chem, 2017).
In brackets after ≈: the same amount, converted by molar mass.

What was measured:
[1] = Displacement of [35S]TBPS from GABA-A receptor in Sprague-Dawley rat cerebral cortex cell membranes after 90 mins in presence of GABA by liquid scintillation counting
[2] = target: T1, GABA-A receptor; alpha-1/beta-2/gamma-2 (Homo sapiens, UniProt P14867+P18507+P47870); experiment: (§1) Positive allosteric modulation of GABAA receptor alpha1beta2gamma2 (unknown origin) expressed in mouse LTK cells assessed as potentiation of GABA-mediated increase in channel current under holding potential at -80 mV preincubated for 30 secs followed by GABA stimulation for 2 secs by automated patch clamp assay; type: cell-based
T1 sequence (P14867 whole entry): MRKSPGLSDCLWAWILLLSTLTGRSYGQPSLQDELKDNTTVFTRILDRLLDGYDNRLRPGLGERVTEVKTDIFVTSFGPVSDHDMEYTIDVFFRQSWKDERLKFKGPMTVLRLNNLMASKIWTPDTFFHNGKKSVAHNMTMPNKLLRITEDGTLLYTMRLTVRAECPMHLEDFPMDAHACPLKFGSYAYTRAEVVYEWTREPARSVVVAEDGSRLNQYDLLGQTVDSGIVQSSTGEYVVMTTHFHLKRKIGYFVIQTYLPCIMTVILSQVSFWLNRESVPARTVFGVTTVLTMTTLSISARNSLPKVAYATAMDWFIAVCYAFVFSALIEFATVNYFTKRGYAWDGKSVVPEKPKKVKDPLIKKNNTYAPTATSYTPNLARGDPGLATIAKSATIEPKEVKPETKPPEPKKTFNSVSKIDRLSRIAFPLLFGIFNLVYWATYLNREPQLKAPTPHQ
T1 sequence (P47870 whole entry): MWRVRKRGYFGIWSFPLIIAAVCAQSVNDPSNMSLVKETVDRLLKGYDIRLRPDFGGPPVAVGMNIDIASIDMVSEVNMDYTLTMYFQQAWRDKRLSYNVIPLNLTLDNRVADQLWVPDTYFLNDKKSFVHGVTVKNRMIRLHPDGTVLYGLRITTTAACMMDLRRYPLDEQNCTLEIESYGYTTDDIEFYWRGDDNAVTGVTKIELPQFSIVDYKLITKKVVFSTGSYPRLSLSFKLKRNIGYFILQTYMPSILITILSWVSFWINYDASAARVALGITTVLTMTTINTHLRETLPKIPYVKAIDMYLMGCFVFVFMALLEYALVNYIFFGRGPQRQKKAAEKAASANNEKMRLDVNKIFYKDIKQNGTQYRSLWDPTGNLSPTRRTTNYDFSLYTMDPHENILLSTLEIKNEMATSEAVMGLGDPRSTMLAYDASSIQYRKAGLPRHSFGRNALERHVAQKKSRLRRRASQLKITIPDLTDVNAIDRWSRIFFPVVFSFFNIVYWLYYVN
T1 sequence (P18507 whole entry): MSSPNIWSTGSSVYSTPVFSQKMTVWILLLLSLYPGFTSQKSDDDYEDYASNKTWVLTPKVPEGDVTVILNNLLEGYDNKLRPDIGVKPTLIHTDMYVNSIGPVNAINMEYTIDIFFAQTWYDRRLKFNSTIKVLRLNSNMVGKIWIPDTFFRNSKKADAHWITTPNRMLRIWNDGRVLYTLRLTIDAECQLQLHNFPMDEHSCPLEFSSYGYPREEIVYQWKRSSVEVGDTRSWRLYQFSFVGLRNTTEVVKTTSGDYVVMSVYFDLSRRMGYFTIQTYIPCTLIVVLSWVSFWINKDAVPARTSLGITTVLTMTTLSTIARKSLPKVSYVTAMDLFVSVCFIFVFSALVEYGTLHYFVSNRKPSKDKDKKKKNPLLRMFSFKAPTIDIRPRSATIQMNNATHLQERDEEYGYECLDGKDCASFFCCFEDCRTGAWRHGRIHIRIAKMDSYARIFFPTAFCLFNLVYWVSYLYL

[3] = target: GABA-A receptor; alpha-1/beta-2/gamma-2 (Homo sapiens) (UniProt P14867+P47870+P18507); experiment: as §1, with “mV at 0.01 to 10 uM” for “mV”, “assay relative to GABA” for “assay”; type: cell-based
[4] = target: Gamma-aminobutyric acid receptor subunit alpha-4/beta3/delta (Homo sapiens, UniProt O14764+P28472+P48169); experiment: as §1, with “alpha4beta3delta” for “alpha1beta2gamma2”, “CHO” for “mouse LTK”, “manual” for “automated”; type: cell-based
[5] = target: GABA-A receptor alpha-4/beta-3/delta (Homo sapiens, UniProt P28472+P48169+); experiment: as §1, with “alpha4beta3delta” for “alpha1beta2gamma2”, “CHO” for “mouse LTK”, “mV at 0.01 to 10 uM” for “mV”, “manual” for “automated”, “assay relative to GABA” for “assay”; type: cell-based; settings: 2 s
[6] = Lipophilicity, logD of compound at 20 uM at pH 7.4 by HPLC/MS-MS analysis; type: physicochemical; settings: buffer
[7] = Thermodynamic aqueous solubility of compound at 10 uM sonicated for 1 min followed by incubation for 1 hr by HPLC-MS/MS; type: physicochemical; settings: buffer; read-out: Therm_solubility
[8] = Clearance in human hepatic microsomes at 10 uM preincubated for 5 mins followed by NADPH addition measured over 60 mins by HPLC-MS/MS analysis; type: ADME, Microsome; settings: liver microsomes
[9] = Clearance in rat hepatic microsomes at 10 uM preincubated for 5 mins followed by NADPH addition measured over 60 mins by HPLC-MS/MS analysis; type: ADME, Microsome; settings: liver microsomes
[10] = Clearance in mouse hepatic microsomes at 10 uM preincubated for 5 mins followed by NADPH addition measured over 60 mins by HPLC-MS/MS analysis; type: ADME, Microsome; settings: liver microsomes
[11] = Clearance in Sprague-Dawley rat at 5 mg/kg, iv or 20 mg/kg, po measured up to 8 hrs post dose by LC/MS-MS analysis; type: ADME, organism-based; settings: in vivo
[12] = Clearance in CD1 mouse at 5 mg/kg, iv or 20 mg/kg, po measured up to 8 hrs post dose by LC/MS-MS analysis; type: ADME, organism-based; settings: in vivo
[13] = Oral bioavailability in Sprague-Dawley rat at 20 mg/kg measured up to 8 hrs post dose by LC/MS-MS analysis; type: ADME, organism-based; settings: in vivo
[14] = Oral bioavailability in CD1 mouse at 20 mg/kg measured up to 8 hrs post dose by LC/MS-MS analysis; type: ADME, organism-based; settings: in vivo
[15] = Ratio of drug level in Sprague-Dawley rat brain to plasma at 5 mg/kg, iv measured at 30 mins post dose by LC/MS-MS analysis; type: ADME, organism-based; settings: read-out: BPR
[16] = Ratio of drug level in CD1 mouse brain to plasma at 5 mg/kg, iv measured at 30 mins post dose by LC/MS-MS analysis; type: ADME, organism-based; settings: read-out: BPR

Chain of GABA-A receptor alpha-4/beta-3/delta (P28472 whole entry): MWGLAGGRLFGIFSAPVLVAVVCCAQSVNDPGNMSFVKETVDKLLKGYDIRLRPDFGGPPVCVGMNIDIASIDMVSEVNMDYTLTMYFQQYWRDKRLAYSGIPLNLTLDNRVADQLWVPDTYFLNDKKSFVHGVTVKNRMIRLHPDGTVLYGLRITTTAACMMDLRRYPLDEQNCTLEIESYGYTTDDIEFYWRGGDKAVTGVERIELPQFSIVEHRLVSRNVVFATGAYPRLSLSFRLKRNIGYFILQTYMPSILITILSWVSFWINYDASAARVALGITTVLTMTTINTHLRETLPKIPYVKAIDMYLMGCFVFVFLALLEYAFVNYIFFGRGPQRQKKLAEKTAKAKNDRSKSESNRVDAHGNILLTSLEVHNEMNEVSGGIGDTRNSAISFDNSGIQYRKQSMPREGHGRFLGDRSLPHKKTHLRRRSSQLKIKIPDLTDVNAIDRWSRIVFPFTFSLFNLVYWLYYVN
Chain of GABA-A receptor alpha-4/beta-3/delta (P48169 whole entry): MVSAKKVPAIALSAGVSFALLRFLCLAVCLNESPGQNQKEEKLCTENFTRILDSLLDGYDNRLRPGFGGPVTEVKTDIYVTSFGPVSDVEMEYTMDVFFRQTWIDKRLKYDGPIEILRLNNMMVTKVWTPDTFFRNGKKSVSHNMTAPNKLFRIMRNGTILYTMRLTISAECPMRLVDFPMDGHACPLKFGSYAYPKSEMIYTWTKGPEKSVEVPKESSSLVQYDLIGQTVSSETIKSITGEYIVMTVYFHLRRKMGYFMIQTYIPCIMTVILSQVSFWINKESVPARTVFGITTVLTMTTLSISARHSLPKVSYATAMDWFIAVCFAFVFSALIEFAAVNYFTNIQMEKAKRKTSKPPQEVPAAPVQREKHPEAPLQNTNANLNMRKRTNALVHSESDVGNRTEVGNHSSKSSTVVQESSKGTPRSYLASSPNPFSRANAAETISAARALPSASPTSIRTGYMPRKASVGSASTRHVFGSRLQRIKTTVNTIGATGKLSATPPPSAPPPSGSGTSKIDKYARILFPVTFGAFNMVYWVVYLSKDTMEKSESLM
Chain of GABA-A receptor alpha-4/beta-3/delta (Q06278 whole entry, further chain): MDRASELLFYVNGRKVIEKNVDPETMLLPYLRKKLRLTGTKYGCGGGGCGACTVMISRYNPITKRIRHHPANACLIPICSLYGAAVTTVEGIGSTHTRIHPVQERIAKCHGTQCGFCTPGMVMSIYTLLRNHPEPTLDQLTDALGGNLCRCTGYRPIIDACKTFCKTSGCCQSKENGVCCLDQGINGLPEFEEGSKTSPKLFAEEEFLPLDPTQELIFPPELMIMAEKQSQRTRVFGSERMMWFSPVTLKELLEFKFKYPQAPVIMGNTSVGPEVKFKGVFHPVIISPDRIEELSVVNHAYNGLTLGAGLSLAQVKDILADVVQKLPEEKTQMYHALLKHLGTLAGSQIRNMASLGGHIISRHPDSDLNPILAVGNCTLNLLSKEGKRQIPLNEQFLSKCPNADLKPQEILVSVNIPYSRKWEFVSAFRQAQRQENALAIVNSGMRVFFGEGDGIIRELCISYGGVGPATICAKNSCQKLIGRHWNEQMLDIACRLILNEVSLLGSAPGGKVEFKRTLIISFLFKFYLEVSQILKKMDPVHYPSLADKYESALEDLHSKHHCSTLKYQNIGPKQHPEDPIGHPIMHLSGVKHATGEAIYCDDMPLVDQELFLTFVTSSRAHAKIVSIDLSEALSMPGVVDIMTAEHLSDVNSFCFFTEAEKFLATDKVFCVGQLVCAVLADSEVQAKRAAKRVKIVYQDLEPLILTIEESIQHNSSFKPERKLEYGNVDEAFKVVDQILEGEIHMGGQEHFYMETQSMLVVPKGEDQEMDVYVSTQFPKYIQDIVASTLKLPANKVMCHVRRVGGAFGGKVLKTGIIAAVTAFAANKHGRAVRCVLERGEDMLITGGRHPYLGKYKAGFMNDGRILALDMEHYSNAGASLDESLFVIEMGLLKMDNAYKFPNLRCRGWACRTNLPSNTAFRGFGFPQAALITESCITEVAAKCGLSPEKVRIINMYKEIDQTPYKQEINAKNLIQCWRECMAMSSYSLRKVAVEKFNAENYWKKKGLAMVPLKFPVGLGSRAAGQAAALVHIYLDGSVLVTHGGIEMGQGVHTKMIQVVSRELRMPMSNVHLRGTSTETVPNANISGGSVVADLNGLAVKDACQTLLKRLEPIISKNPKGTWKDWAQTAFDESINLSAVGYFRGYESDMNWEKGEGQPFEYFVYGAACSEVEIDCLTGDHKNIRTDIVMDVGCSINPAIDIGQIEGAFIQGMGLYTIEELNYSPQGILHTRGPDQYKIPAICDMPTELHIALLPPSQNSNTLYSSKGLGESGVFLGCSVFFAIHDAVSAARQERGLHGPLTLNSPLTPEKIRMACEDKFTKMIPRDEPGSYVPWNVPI
Chain of Gamma-aminobutyric acid receptor subunit alpha-4/beta3/delta (P28472 whole entry): as the sequence (P28472 whole entry) above
Chain of Gamma-aminobutyric acid receptor subunit alpha-4/beta3/delta (P48169 whole entry): as the sequence (P48169 whole entry) above
Chain of Gamma-aminobutyric acid receptor subunit alpha-4/beta3/delta (O14764 whole entry): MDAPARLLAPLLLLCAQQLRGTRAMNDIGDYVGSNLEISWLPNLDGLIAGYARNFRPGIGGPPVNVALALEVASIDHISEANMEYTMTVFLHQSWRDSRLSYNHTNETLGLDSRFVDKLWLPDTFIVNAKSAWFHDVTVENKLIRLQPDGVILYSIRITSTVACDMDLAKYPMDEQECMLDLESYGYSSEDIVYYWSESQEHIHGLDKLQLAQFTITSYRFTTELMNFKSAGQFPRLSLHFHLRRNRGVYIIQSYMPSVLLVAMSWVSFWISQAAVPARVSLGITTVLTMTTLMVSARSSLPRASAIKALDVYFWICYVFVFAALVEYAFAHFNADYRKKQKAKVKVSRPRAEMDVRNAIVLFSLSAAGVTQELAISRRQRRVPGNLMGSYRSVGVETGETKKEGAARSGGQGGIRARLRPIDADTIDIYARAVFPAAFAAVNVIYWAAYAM

| Compound | IC50 [1] [nM] | EC50 [2] [nM] | Emax [3] [%] | EC50 [4] [nM] | Emax [5] [%] | logD at 20 µM [6] | solubility thermodynamic at 1 h, 10 µM [7] [µM] | CLhep predicted at 10 µM [8] [mL/min/kg] | CLhep predicted at 10 µM [9] [mL/min/kg] | CLhep predicted at 10 µM [10] [mL/min/kg] | clearance [11] [mL/min/kg] | clearance [12] [mL/min/kg] | bioavailability [13] [%] | bioavailability [14] [%] | Kp at 0.5 h [15] | Kp at 0.5 h [16] |
| --- | --- | --- | --- | --- | --- | --- | --- | --- | --- | --- | --- | --- | --- | --- | --- | --- |
| Cc1cn(CC(=O)[C@H]2CC[C@H]3[C@@H]4CC[C@@H]5C[C@](C)(O)CC[C@@H]5[C@H]4CC[C@]23C)nn1 | 17 | > 3000 | > 530 |  |  |  |  |  |  |  |  |  |  |  |  |  |
| CC[C@@]1(O)CC[C@H]2[C@H](CC[C@@H]3[C@@H]2CC[C@]2(C)[C@@H](C(=O)Cn4cc(C#N)cn4)CC[C@@H]32)C1 | 36 | > 3000 | > 297 |  |  |  |  |  |  |  |  |  |  |  |  |  |
| Cc1ccnn1CC(=O)[C@H]1CC[C@H]2[C@@H]3CC[C@@H]4C[C@](C)(O)CC[C@@H]4[C@H]3CC[C@]12C | 80 | > 10000 | > 469 |  |  |  |  |  |  |  |  |  |  |  |  |  |
| C[C@@]1(O)CC[C@H]2[C@H](CC[C@@H]3[C@@H]2CC[C@]2(C)[C@@H](C(=O)Cn4cccn4)CC[C@@H]32)C1 | 30 | 979 | 474 | 1240 | 583 | 4.6 | 8 (≈ 3.08 µg/mL) | 5 | 41.7 | 81.7 | 28.3 | 75 | 19 | 5 | 1.1 |  |
| C[C@@]1(O)CC[C@H]2[C@H](CC[C@@H]3[C@@H]2CC[C@]2(C)[C@@H](C(=O)Cn4ncc(C#N)n4)CC[C@@H]32)C1 | 78 | > 3000 | > 154 |  |  |  |  |  |  |  |  |  |  |  |  |  |
| Cc1ccn(CC(=O)[C@H]2CC[C@H]3[C@@H]4CC[C@@H]5C[C@](C)(O)CC[C@@H]5[C@H]4CC[C@]23C)n1 | 45 | > 3650 | > 695 |  |  |  |  |  |  |  |  |  |  |  |  |  |
| C[C@@]1(O)CC[C@H]2[C@H](CC[C@@H]3[C@@H]2CC[C@]2(C)[C@@H](C(=O)Cn4cc(C(N)=O)cn4)CC[C@@H]32)C1 | 64 | > 3000 | > 357 |  |  |  |  |  |  |  |  |  |  |  |  |  |
| C[C@@]1(O)CC[C@H]2[C@H](CC[C@@H]3[C@@H]2CC[C@]2(C)[C@@H](C(=O)Cn4cc([N+](=O)[O-])cn4)CC[C@@H]32)C1 | 18 | 1160 | 440 |  |  |  |  |  |  |  |  |  |  |  |  |  |
| C[C@@]1(O)CC[C@H]2[C@H](CC[C@@H]3[C@@H]2CC[C@]2(C)[C@@H](C(=O)Cn4nccn4)CC[C@@H]32)C1 | 11 | 125 | 663 | 240 | 579 |  | 7.3 (≈ 2.81 µg/mL) | 3.33 | 45 | 66.7 |  | 43.3 | 25 | 17 | 1.8 | 1 |
| C[C@@]1(O)CC[C@H]2[C@H](CC[C@@H]3[C@@H]2CC[C@]2(C)[C@@H](C(=O)Cn4cc(C(F)(F)F)cn4)CC[C@@H]32)C1 | 8 | 1050 | 339 | 1600 |  |  |  |  |  |  |  |  |  |  |  |  |
| Cc1cnn(CC(=O)[C@H]2CC[C@H]3[C@@H]4CC[C@@H]5C[C@](C)(O)CC[C@@H]5[C@H]4CC[C@]23C)c1 | 49 | 291 | 427 | 1360 | 841 | 5 | 7 (≈ 2.79 µg/mL) | 8.33 | 50 | 85 | 63.3 | 60 | 9.5 | 6 | 2 |  |
| C[C@@]1(O)CC[C@H]2[C@H](CC[C@@H]3[C@@H]2CC[C@]2(C)[C@@H](C(=O)Cn4cc(C(=O)O)cn4)CC[C@@H]32)C1 | > 3000 |  |  |  |  |  |  |  |  |  |  |  |  |  |  |  |
| C[C@@]1(O)CC[C@H]2[C@H](CC[C@@H]3[C@@H]2CC[C@]2(C)[C@@H](C(=O)Cn4cc(C#N)nn4)CC[C@@H]32)C1 | 251 |  |  |  |  |  |  |  |  |  |  |  |  |  |  |  |
| COc1cnn(CC(=O)[C@H]2CC[C@H]3[C@@H]4CC[C@@H]5C[C@](C)(O)CC[C@@H]5[C@H]4CC[C@]23C)c1 | 28 | 1760 | 434 | 2050 | 750 |  |  |  |  |  |  |  |  |  |  |  |
| Cc1cnnn1CC(=O)[C@H]1CC[C@H]2[C@@H]3CC[C@@H]4C[C@](C)(O)CC[C@@H]4[C@H]3CC[C@]12C | > 3000 | 1600 | 1120 | 2010 |  |  |  |  |  |  |  |  |  |  |  |  |
| Cc1cnn(CC(=O)[C@H]2CC[C@H]3[C@@H]4CC[C@@H]5C[C@](C)(O)CC[C@@H]5[C@H]4CC[C@]23C)n1 | 21 | 1640 | 532 | 192 | 614 |  | 7 (≈ 2.8 µg/mL) | 5 | 53.3 | 81.7 | 50 | 61.7 | 6 | 39 |  | 1 |
| C[C@@]1(O)CC[C@H]2[C@H](CC[C@@H]3[C@@H]2CC[C@]2(C)[C@@H](C(=O)Cn4cc(Cl)cn4)CC[C@@H]32)C1 | 13 | 1500 | 642 | 744 |  |  |  |  |  |  |  |  |  |  |  |  |
| CC(=O)[C@H]1CC[C@H]2[C@@H]3CC[C@H]4C[C@H](O)CC[C@]4(C)[C@H]3CC[C@]12C [BREXANOLONE] | 22 | 237 | 510 | 75.5 | 430 |  | 3.3 (≈ 1.05 µg/mL) |  | 55 | 66.7 |  | 200 | 2 |  | 1.8 | 1.9 |
| COC[C@@]1(O)CC[C@H]2[C@H](CC[C@@H]3[C@@H]2CC[C@]2(C)[C@@H](C(=O)Cn4cc(C#N)cn4)CC[C@@H]32)C1 | 16 | > 3000 | > 1130 | 577 | 610 |  |  |  |  |  |  |  |  |  |  |  |
